We go through 9 molecules from patent US9174948B2, “Desferrithiocin polyether analogues” (University of Florida Research Foundation, Inc., priority 2007, dated 2015).

Like-named read-outs stand apart in the source and are kept apart here.

Series [1] in a line: Iron clearance performance ratio in primates versus rodents. The series is classed as in vivo, Cebus apella / rat. The conditions noted are these: mean ICE primates / mean ICE rodents. The text has this:
Iron Clearance Performance Ratio in Primates versus Rodents. The performance ratio (PR), defined as the mean ICEprimates/ICErodents, is noteworthy (Table 3). […] The mean ICE for the primate group can be compared with the mean ICE of the rodent group (Table 3). […] This is not the case with the 5′-polyether (6), whose ICE is virtually identical in the two species. The largest differences in performance ratios generally unfold with the parent ligands 1, 4, and 7.

Series [2] concerns Non-Iron-Overloaded Rodents. The series is described as follows: Chelator-induced iron clearance in non-iron-overloaded, bile duct-cannulated rats. The conditions noted are these: po, 300 μmol/kg; for ICE of the polyether relative to that of the parent ligand: 1 vs 3, 4 vs 6, 7 vs 9. The series is classed as in vivo, rat (male Sprague-Dawley). The text has this: Chelator-Induced Iron Clearance in Non-Iron-Overloaded Rodents. […] J. Med. Chem. 2006, 49, 2772-2783]. Recall that iron-clearing efficiency (ICE) is defined as (net iron excretion)/(total iron-binding capacity of the chelator), expressed as a percent. The relative ICE values of compounds 1 and 2 were in keeping with their log Papp values: the more lipophilic, the larger log Papp, the more efficient the chelator. […] However, the ICE trend was in keeping with the biliary ferrokinetics (FIG. 3) and liver concentration of the chelators, for example, 3>1 (FIG. 4).
Cannulation of Bile Duct in Non-Iron-Overloaded Rats has been described previously. […]. […] The urine sample(s) was taken at 24 h intervals. Sample collection and handling are as previously described [Bergeron, R. J., Streiff, R. R., Creary, E. A., Daniels, R. D., Jr., King, W., Luchetta, G., Wiegand, J., Moerker, T. and Peter, H. H. A Comparative Study of the Iron-Clearing Properties of Desferrithiocin Analogues with Desferrioxamine B in a Cebus Monkey Model. Blood 1993, 81, 2166-2173; Bergeron, R. J., Streiff, R. R., Wiegand, J., Vinson, J. R. T., Luchetta, G., Evans, K. M., Peter, H. and Jenny, H.-B. A Comparative Evaluation of Iron Clearance Models. Ann. N.Y. Acad. Sci. 1990, 612, 378-393].
(§1) In the iron-clearing experiments, the rats were given a single 300 μmol/kg dose of drugs 1-9 orally (po).
(§2) J. Med. Chem. 1999, 42, 2432-2440].

Series [3] relates to Iron-Overloaded Cebus apella Primates. The series is described as follows: Chelator-induced iron clearance in iron-overloaded Cebus apella primates. The series is classed as in vivo. As to conditions: po, 75 μmol/kg.
From the text: Chelator-Induced Iron Clearance in Iron-Overloaded Cebus apella Primates. The iron-clearance data for all three sets of ligands are presented (Table 2). […] J. Med. Chem. 2003, 46, 1470-1477]>1 (16.8±7.2%) [Bergeron, R. J., Wiegand, J., McManis, J. S., McCosar, B. H., Weimar, W. R., Brittenham, G. M. and Smith, R. E. Effects of C-4 Stereochemistry and C-4′ Hydroxylation on the Iron Clearing Efficiency and Toxicity of Desferrithiocin Analogues. J. Med. Chem. 1999, 42, 2432-2440], the increase is not significant. Although (S)-4′-(HO)-DADFT-PE (3) is the least lipophilic chelator in the 1-3 series, it is just as efficient (ICE, 25.4±7.4%) [Bergeron, R. J., Wiegand, J., McManis, J. S., Vinson, J. R. T., Yao, H., Bharti, N. and Rocca, J. R. (S)-4,5-Dihydro-2-(2-hydroxy-4-hydroxyphenyl)-4-methyl-4-thiazolecarboxylic Acid Polyethers: A Solution to Nephrotoxicity.
The monkeys (3.5-4 kg) were iron overloaded with intravenous iron dextran as specified in earlier publications to provide about 500 mg of iron per kg of body weight [Bergeron, R. J., Streiff, R. R., Wiegand, J., Luchetta, G., Creary, E. A. and Peter, H. H. A Comparison of the Iron-Clearing Properties of 1,2-Dimethyl-3-hydroxypyrid-4-one, 1,2-Diethyl-3-hydroxypyrid-4-one, and Deferoxamine. Blood 1992, 79, 1882-1890]; the serum transferrin iron saturation rose to between 70 and 80%. At least 20 half-lives, 60 d [Wood, J. K., Milner, P. F. and Pathak, U. N. The Metabolism of Iron-dextran Given as a Total-dose Infusion to Iron Deficient Jamaican Subjects. Br. J. Haematol. 1968, 14, 119-129], elapsed before any of the animals were used in experiments evaluating iron-chelating agents.
Fecal and urine samples were collected at 24-h intervals and processed as described previously [Bergeron, R. J., Streiff, R. R., Creary, E. A., Daniels, R. D., Jr., King, W., Luchetta, G., Wiegand, J., Moerker, T. and Peter, H. H. A Comparative Study of the Iron-Clearing Properties of Desferrithiocin Analogues with Desferrioxamine B in a Cebus Monkey Model. Blood 1993, 81, 2166-2173; Bergeron, R. J., Streiff, R. R., Wiegand, J., Vinson, J. R. T., Luchetta, G., Evans, K. M., Peter, H. and Jenny, H.-B. A Comparative Evaluation of Iron Clearance Models. Ann. N.Y. Acad. Sci. 1990, 612, 378-393; Bergeron, R. J., Wiegand, J. and Brittenham, G. M. HBED: A Potential Alternative to Deferoxamine for Iron-Chelating Therapy. Blood 1998, 91, 1446-1452]. Briefly, the collections began 4 d prior to the administration of the test drug and continued for an additional 5 d after the drug was given. Iron concentrations were determined by flame atomic absorption spectroscopy as presented in other publications [Bergeron, R. J., Streiff, R. R., Wiegand, J., Vinson, J. R. T., Luchetta, G., Evans, K. M., Peter, H. and Jenny, H.-B. A Comparative Evaluation of Iron Clearance Models. Ann. N.Y. Acad. Sci. 1990, 612, 378-393; Bergeron, R. J., Wiegand, J., Wollenweber, M., McManis, J. S., Algee, S. E. and Ratliff-Thompson, K. Synthesis and Biological Evaluation of Naphthyldesferrithiocin Iron Chelators. J. Med. Chem. 1996, 39, 1575-1581].
as §1, §2

Series [4] is described as follows: Chelator tissue distribution in rodents. As to conditions: rats, sc, 300 μmol/kg; for concentration at 0.5 h: male, Sprague-Dawley, rat, plasma. The series is classed as in vivo, rat (male Sprague-Dawley). How it is done: Collection of Tissue Distribution Samples from Rodents: Male Sprague-Dawley rats (250-350 g) were given a single sc injection of the monosodium salts of 6 and 9 prepared as described above at a dose of 300 μmol/kg. At times 0.5, 1, 2, and 4 h after dosing (n=3 rats per time point) the animals were euthanized by exposure to CO2 gas. Blood was obtained via cardiac puncture into vacutainers containing sodium citrate. The blood was centrifuged, and the plasma was separated for analysis. The liver, heart, kidneys, and pancreas were then removed from the animals. […] J. Med. Chem. 2006, 49, 2772-2783]. In the current study, tissues from the (S)-3′-(HO)-DADFT-PE (9) and (S)-5′-(HO)-DADFT-PE (6) treated rats were prepared for HPLC analysis by homogenizing them in 0.5 N HClO4 at a ratio of 1:3 (w/v). Then, as a rinse, CH3OH at a ratio of 1:3 (w/v) was added and the mixture was stored at −20° C. for 30 min. This homogenate was centrifuged. The supernatant was diluted with mobile phase A (95% buffer [25 mM KH2PO4, pH 3.0]/5% CH3CN), vortexed, and filtered with a 0.2 μm membrane. Analytical separation was performed on a Discovery RP Amide C16 HPLC system with UV detection at 310 nm as described previously [Bergeron, R. J., Wiegand, J., Weimar, W. R., McManis, J. S., Smith, R. E. and Abboud, K. A. Iron Chelation Promoted by Desazadesferrithiocin Analogues: An Enantioselective Barrier. Chirality 2003, 15, 593-599; Bergeron, R. J., Wiegand, J., Ratliff-Thompson, K. and Weimar, W. R. The Origin of the Differences in (R)- and (S)-Desmethyldesferrithiocin: Iron-Clearing Properties. Ann. N.Y. Acad. Sci. 1998, 850, 202-216]. Mobile phase and chromatographic conditions were as follows: solvent A, 5% CH3CN/95% buffer; solvent B, 60% CH3CN/40% buffer. The concentrations were calculated from the peak area fitted to calibration curves by nonweighted least-squares linear regression with Rainin Dynamax HPLC Method Manager software (Rainin Instrument Co.).

The test system of series [5] is Non-Iron-Overloaded Rodents. The conditions noted are these: rats, po, 300 μmol/kg, historical data; cited from earlier work.
The subject of series [6] is Iron-Overloaded Cebus apella Primates. As to conditions: Cebus apella, po, 150 μmol/kg, historical data; cited from earlier work.
The conditions of series [7]: earlier preclinical studies; cited from earlier work.

In the case of `COCCOCCOCCOc1cccc(C2=N[C@@](C)(C(=O)O)CS2)c1O` [drawing 29], the “ICE Primate/ICE Rodent (performance ratio)” value in series [1] was 2.3.
On the same count and under the same terms, to `C[C@]1(C(=O)O)CSC(c2cccc(O)c2O)=N1` [drawing 27] belongs 5.0.
`COCCOCCOCCOc1ccc(O)c(C2=N[C@@](C)(C(=O)O)CS2)c1` [Compound 6, (S)-4,5-dihydro-2-[2-hydroxy-5-(3,6,9-trioxadecyloxy)phenyl]-4-methyl-4-thiazolecarboxylic acid]: in series [2], the “Iron-Clearing Efficiency (%)” value is given as 8.0±1.8%; the “ICE of the polyether relative to that of the parent ligand” value was determined as 800%; the “relative percentages of the iron excreted in the bile and urine” value is listed as 98/2. Moreover, in series [3], the “Iron-Clearing Efficiency (%)” value is 8.1±2.8%; the “relative percentages of the iron excreted in the stool and urine” value is listed as 56/44. In series [4] (0.5 h), this molecule returned a concentration at 0.5 h of 324 ± 20 µM, a kidney concentration of 643±92 nmol/g wet weight and a liver concentration of 483±85 nmol/g wet weight. Further, the “decrease of liver concentration from 0.5 h to 1 h” value in series [4] is reported as 36%. Also, in series [4] (1 h), the “drop in plasma concentration relative to 0.5 h” value stood at 39% and the kidney concentration is 435±111 nmol/g wet weight. For the same molecule, in series [4] (2 h), the “drop in plasma concentration relative to 0.5 h” value stood at 54%, the kidney concentration amounted to 321±20 nmol/g wet weight and the pancreas concentration result is “≈ 30 nmol/g wet weight”. For the same molecule, in series [4] (4 h), the “drop in plasma concentration relative to 0.5 h” value is given as 82% and the kidney concentration stood at 116±65 nmol/g wet weight.
Regarding `C[C@]1(C(=O)O)CSC(c2cc(O)ccc2O)=N1` [drawing 24], in series [1], the “ICE Primate/ICE Rodent (performance ratio)” value stood at 12.6.
For the molecule `COCCOCCOCCOc1cccc(C2=N[C@@](C)(C(=O)O)CS2)c1O` [Compound 9, (S)-4,5-dihydro-2-[2-hydroxy-3-(3,6,9-trioxadecyloxy)phenyl]-4-methyl-4-thiazolecarboxylic acid], in series [2], the “ICE of 3′-polyether relative to 4′-polyether (3), more effective” value was about 200% and the “ICE of the polyether relative to that of the parent ligand” value came out at 230%. Also, in series [2] (48 h sample collection period), the “Iron-Clearing Efficiency (%)” value was determined as 10.6±4.4%; the “relative percentages of the iron excreted in the bile and urine” value is 95/5. In series [3], the “Iron-Clearing Efficiency (%)” value was determined as 24.5±7.6%; the “relative percentages of the iron excreted in the stool and urine” value is 72/28. For the same molecule, in series [4] (0.5 h), the concentration at 0.5 h turned out to be 62 ± 24 µM, the kidney concentration came to 280±26 nmol/g wet weight and the liver concentration stood at 242±38 nmol/g wet weight. Besides, in series [4] (1 h), the “drop in plasma concentration relative to 0.5 h” value is listed as 26%, the kidney concentration came to 259±35 nmol/g wet weight and the liver concentration came to 318±46 nmol/g wet weight. Moreover, in series [4] (2 h), the “drop in plasma concentration relative to 0.5 h” value is on record as 61%, the kidney concentration turned out to be 145±27 nmol/g wet weight and the pancreas concentration was 16 nmol/g wet weight. Also, in series [4] (4 h), the “drop in plasma concentration relative to 0.5 h” value is 79% and the kidney concentration is recorded as 90±7 nmol/g wet weight.
Regarding `COc1ccc(O)c(C2=N[C@@](C)(C(=O)O)CS2)c1` [drawing 25], the “ICE Primate/ICE Rodent (performance ratio)” value in series [1] amounted to 3.0.
The same measure, in the same setting: to `COCCOCCOCCOc1ccc(O)c(C2=N[C@@](C)(C(=O)O)CS2)c1` [drawing 26] belongs 1.0; to `COc1cccc(C2=N[C@@](C)(C(=O)O)CS2)c1O` [drawing 28], 1.8.
In the case of `COc1ccc(C2=N[C@@](C)(C(=O)O)CS2)c(O)c1` [Compound 2, (S)-4,5-dihydro-2-(2-hydroxy-4-methoxyphenyl)-4-methyl-4-thiazolecarboxylic acid], the “Iron-Clearing Efficiency (%)” value is 6.6±2.8% in series [5] and 24.4±10.8% in series [6]. The “toxicity / nephrotoxicity in words” value in series [7] was “unacceptably toxic”.
